ChEMBL document CHEMBL1136103, “Structure-based drug design of pyrazinone antithrombotics as selective inhibitors of the tissue factor VIIa complex” (Bioorg Med Chem Lett, 2003)
pIC50: −log10 of the molar value.

What was measured:
Coagulation factor X = Coagulation factor X (Homo sapiens, UniProt P00742); experiment: Inhibitory activity against coagulation factor X
Serine protease 1 = Serine protease 1 (Homo sapiens, UniProt P07477)
Chain of Serine protease 1 (P07477 whole entry): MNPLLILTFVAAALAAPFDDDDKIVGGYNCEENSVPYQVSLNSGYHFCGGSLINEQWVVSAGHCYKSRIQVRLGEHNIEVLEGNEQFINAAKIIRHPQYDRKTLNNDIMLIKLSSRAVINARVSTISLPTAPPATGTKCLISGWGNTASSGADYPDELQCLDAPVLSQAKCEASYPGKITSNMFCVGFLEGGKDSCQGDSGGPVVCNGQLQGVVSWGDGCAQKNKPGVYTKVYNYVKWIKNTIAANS
Description: Inhibitory activity against trypsin

Chain of Coagulation factor X (P00742 41-179 limits assumed): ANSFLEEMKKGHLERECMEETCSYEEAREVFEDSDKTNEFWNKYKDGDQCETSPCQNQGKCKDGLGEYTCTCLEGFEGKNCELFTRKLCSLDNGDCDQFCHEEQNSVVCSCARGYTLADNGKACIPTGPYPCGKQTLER
Chain of Coagulation factor X (P00742 235-488 limits assumed): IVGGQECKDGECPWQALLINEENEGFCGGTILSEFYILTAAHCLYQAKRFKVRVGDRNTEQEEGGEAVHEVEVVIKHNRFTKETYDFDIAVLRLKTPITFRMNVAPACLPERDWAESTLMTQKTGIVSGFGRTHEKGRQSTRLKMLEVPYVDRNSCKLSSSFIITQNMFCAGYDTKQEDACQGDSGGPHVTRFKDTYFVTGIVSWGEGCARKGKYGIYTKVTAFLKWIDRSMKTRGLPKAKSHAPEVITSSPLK

N=C(N)NCCC[C@H](NC(=O)Cn1c(-c2ccccc2)c(Cl)nc(NCCc2ccccc2)c1=O)C(=O)c1nccs1
pIC50 (Coagulation factor X): 5.85 | pIC50 (Serine protease 1): 6.38

N=C(N)c1ccc(CNC(=O)Cn2c(-c3cccc(N)c3)c(Cl)nc(NC3CCC3)c2=O)cc1
pIC50 (Coagulation factor X): < 4.00 | pIC50 (Serine protease 1): 7.49

N=C(N)NCCC[C@H](NC(=O)Cn1c(Cc2ccccc2)c(Cl)nc(NCCc2ccccc2)c1=O)C(=O)c1nccs1
pIC50 (Serine protease 1): 6.33

CC(C)Nc1nc(Cl)c(-c2cc(N)cc(C(=O)O)c2)n(CC(=O)NCc2ccc(C(=N)N)cc2)c1=O
pIC50 (Coagulation factor X): < 4.00 | pIC50 (Serine protease 1): 7.19
